From patent US20230212164A1, “ANNULATED 2-AMINO-3-CYANO THIOPHENES AND DERIVATIVES FOR THE TREATMENT OF CANCER” (BOEHRINGER INGELHEIM INTERNATIONAL GMBH, priority 2020, published 2023)
Where two headings read alike, the source gives them in different places.

Assays:
[1] = molecular target: KRASG12-dependent Ba/F3 cells (Homo sapiens, UniProt P01116, G12C, cells depend on it); assay: Ba/F3 cell model proliferation assay (AlamarBlue, 72 h); format: cell-based; conditions: Ba/F3 cells transduced with KRASG12C, read-out: IC50 Ba/F3 KRASG12C
Chain of KRASG12-dependent Ba/F3 cells (P01116 whole entry G12C): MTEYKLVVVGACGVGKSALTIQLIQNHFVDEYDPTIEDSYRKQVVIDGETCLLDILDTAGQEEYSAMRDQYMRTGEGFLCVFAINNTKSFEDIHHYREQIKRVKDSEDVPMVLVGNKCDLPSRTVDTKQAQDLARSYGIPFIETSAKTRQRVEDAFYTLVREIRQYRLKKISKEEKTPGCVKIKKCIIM
Experimental: Ba/F3 Cell Model Generation and Proliferation Assay
Plasmids containing KRASG12 mutants were obtained from GeneScript. To generate KRASG12-dependent Ba/F3 models, Ba/F3 cells were transduced with retroviruses containing vectors that harbor KRASG12 isoforms. Platinum-E cells (Cell Biolabs) were used for retrovirus packaging. Retrovirus was added to Ba/F3 cells. To ensure infection, 4 μg/mL polybrene was added and cells were spinfected. […] Cells with an infection efficiency of 10% to 20% were further cultivated and puromycin selection with 1 μg/mL was initiated. As a control, parental Ba/F3 cells were used to show selection status. Selection was considered successful when parental Ba/F3 cells cultures died. To evaluate the transforming potential of KRASG12 mutations, the growth medium was no longer supplemented with IL-3. Ba/F3 cells harboring the empty vector were used as a control. Approximately ten days before conducting the experiments, puromycin was left out.
All treatments were performed in technical duplicates. The assay is run using a fully automated robotic system. Treated cells were incubated for 72 h at 37° C. with 5% CO2.
AlamarBlue™ (ThermoFisher), a viability stain, was added and fluorescence measured in the PerkinElmer Envision HTS Multilabel Reader.

[2] = molecular target: T1, protein-protein interaction between SOS1 and KRAS G12C (Homo sapiens, UniProt P01116, C118S/C51S/C80L/G12C); assay: KRAS::SOS1 AlphaScreen binding assay
T1 construct: His6 (N)
T1 sequence (P01116 1-169 isoform P01116-2 G12C/C51S/C80L/C118S): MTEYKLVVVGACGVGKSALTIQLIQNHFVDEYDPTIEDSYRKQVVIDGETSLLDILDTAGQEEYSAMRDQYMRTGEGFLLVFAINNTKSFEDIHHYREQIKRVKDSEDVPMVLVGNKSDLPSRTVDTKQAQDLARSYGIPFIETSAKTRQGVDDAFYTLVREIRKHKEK
Experimental: KRAS::SOS1 AlphaScreen Binding Assay
Assay buffer: • 1×PBS • 0.1% BSA • 0.05% Tween 20
AlphaLISA Glutathione Acceptor Beads and AlphaScreen Streptavidin Donor Beads are mixed in assay buffer at a concentration of 10 μg/mL (final assay concentration) each prior to use and kept at room temperature.
Compounds are diluted to a final start concentration of 100 μM and are tested in duplicate. […] For compound a start concentration of 100 μM, 150 nL of compound solution is transferred per well in 11 concentrations in duplicate with serial 1:5 dilutions.
The assay is run using a fully automated robotic system in a darkened room below 100 Lux. 10 μL of KRAS::SOS1 GDP mix is added into columns 1-24 to the 150 nL of compound solution (final dilution in the assay 1:100, final DMSO concentration 1%).
After 30 minutes incubation time 5 μL of bead mix is added into columns 1-23. Plates are kept at room temperature in a darkened incubator. After further 60 minutes incubation, the signal is measured using a PerkinElmer Envision HTS Multilabel Reader using the AlphaScreen specifications from PerkinElmer. Each plate contains the following controls: • diluted DMSO+KRAS::SOS1 GDP mix+bead mix • diluted DMSO+KRAS::SOS1 GDP mix
IC50 values are calculated and analyzed using a 4 parametric logistic model.

[3] = test system: pERK (Thr202/Tyr204) in NCI-H358 (KRAS G12C mutation); assay: ERK phosphorylation assay 1 (AlphaLISA SureFire Ultra p-ERK1/2)
Experimental: ERK Phosphorylation Assay
Materials Used for the Assay:
AlphaLISA SureFire Ultra p-ERK1/2 (Thr202/Tyr204) Assay Kit (ALSU-PERK-A500)
The cells are incubated for 1 h at room temperature and then incubated overnight in an incubator at 37° C. and 5% CO2 in a humidified atmosphere. 60 nL compound solution (10 mM DMSO stock solution) is then added using a Labcyte Echo 550 device. […] After 20 minutes of incubation at room temperature with shaking, 6 μL of each lysate sample is transferred to a 384-well Proxiplate and analyzed for pERK (Thr202/Tyr204) with the AlphaLISA SureFire Ultra pERK1/2 (Thr202/Tyr204) Assay Kit. 3 μL Acceptor Mix and 3 μL Donor Mix are added under subdued light and incubated for 2 h at room temperature in the dark, before the signal is measured on a PerkinElmer Envision HTS Multilabel Reader. The raw data were imported into and analyzed with the Boehringer Ingelheim proprietary software MegaLab (curve fitting based on the program PRISM, GraphPad Inc.).

[4] = Homo sapiens, NCI-H358, read-out: IC50 H358 pERK

C=CC(=O)N1CCN(c2cc(-c3noc([C@@]4(C)CCCc5sc(N)c(C#N)c54)n3)nc(N3CCCN(CC4(C)COC4)C[C@@H]3C)n2)CC1 [Ia-41]
GI50 [1]: 0.0102 µM | IC50 ([2]; Table 36): 0.0018 µM

C=CC(=O)N1CCN(c2cc(-c3noc([C@@]4(C)CCCc5sc(N)c(C#N)c54)n3)nc(N3CCCN([C@@H]4CCOC4)C[C@@H]3C)n2)CC1 [Ia-43]
GI50 [1]: 0.0027 µM | IC50 ([2]; Table 36): 0.0017 µM

C=CC(=O)N1CCN(c2cc(-c3noc([C@@]4(C)CCCc5sc(N)c(C#N)c54)n3)nc(N3CCCN([C@H]4CCOC4)C[C@@H]3C)n2)CC1 [Ia-44]
GI50 [1]: 0.0025 µM | IC50 ([2]; Table 36): 0.0015 µM

C=CC(=O)N1CCN(c2cc(-c3noc([C@@]4(C)CCCc5sc(N)c(C#N)c54)n3)nc(OC[C@@H]3CCCN3C)n2)CC1 [Ia-47]
GI50 [1]: 0.186 µM | IC50 ([2]; Table 36): 0.003 µM

C=CC(=O)N1CCCN(c2cc(-c3noc([C@@]4(C)CCCc5sc(N)c(C#N)c54)n3)nc(O[C@@H](C)[C@@H]3CCCN3C)n2)CC1 [Ia-52]
GI50 [1]: 0.0184 µM | IC50 ([2]; Table 36): 0.0018 µM

C=CC(=O)N(C)CCOc1cc(-c2noc([C@@]3(C)CCCc4sc(N)c(C#N)c43)n2)nc(N2CCCN(C)C[C@@H]2C)n1 [Ia-74]
GI50 [1]: 0.254 µM | IC50 ([2]; Table 36): 0.061 µM

C=CC(=O)N1CCC(Oc2cc(-c3noc(C4(C)CCCc5sc(N)c(C#N)c54)n3)nc(N3CCN(C)CC3)c2)CC1 (stereo not shown) [Ia-88]
GI50 [1]: 0.381 µM | IC50 ([2]; Table 36): 0.071 µM

C=CC(=O)N1CCN(c2cc(-c3noc(C4(C)CCC(C)c5sc(N)c(C#N)c54)n3)nc(N3CCN(CC4CC4)CC3)c2)CC1 (stereo not shown) [Ia-106]
IC50 [3, 4]: 0.0252 µM | IC50 ([2]; Table 36): 0.18 µM

C=CC(=O)N1CCN(c2cc(-c3noc(C4(C)CCCc5sc(N)c(C#N)c54)n3)nc(N3CCN(CC)CC3)c2)CC1C (stereo not shown) [Ia-107]
IC50 [3, 4]: 0.0293 µM | IC50 ([2]; Table 36): 0.198 µM

C=CC(=O)N1CCN(c2cc(-c3noc(C4(C)CCCc5sc(N)c(C#N)c54)n3)nc(N3CCN(C)CC3)c2)CC1C (stereo not shown) [Ia-108]
IC50 [3, 4]: 0.0198 µM | IC50 ([2]; Table 36): 0.182 µM

C=CC(=O)NCC1CN(c2cc(-c3noc(C4(C)CCCc5sc(N)c(C#N)c54)n3)nc(N3CCN(C)CC3)c2)C1 (stereo not shown) [Ia-109]
IC50 [3, 4]: 5.99 µM | IC50 ([2]; Table 36): 0.943 µM

C=CC(=O)N1CCN(c2cc(-c3noc(C4(C)CCCc5sc(N)c(C#N)c54)n3)nc(N3CCN(C(C)C)CC3)c2)CC1 (stereo not shown) [Ia-110]
IC50 [3, 4]: 0.0087 µM | IC50 ([2]; Table 36): 0.076 µM

C=CC(=O)N1CCC(Oc2cc(-c3noc(C4(C)CCCc5sc(N)c(C#N)c54)n3)nc(N3CCN(C4CCCC4)CC3)c2)CC1 (stereo not shown) [Ia-111]
IC50 [3, 4]: 0.0925 µM | IC50 ([2]; Table 36): 0.418 µM

C=CC(=O)N1CC[C@@H](Oc2cc(-c3noc([C@@]4(C)CCCc5sc(N)c(C#N)c54)n3)nc(N3CCN(C)CC3)c2)C1 [Ia-112]
IC50 [3, 4]: 0.0185 µM | IC50 ([2]; Table 36): 0.073 µM

C=CC(=O)N1CCN(c2cc(-c3noc(C4(C)CC(F)(F)Cc5sc(N)c(C#N)c54)n3)nc(N3CCN(C)CC3)c2)CC1 (stereo not shown) [Ia-113]
IC50 [3, 4]: 0.376 µM | IC50 ([2]; Table 36): 0.73 µM

C=CC(=O)N1CCN(c2cc(-c3noc(C4(C)CCCc5sc(N)c(C#N)c54)n3)nc(N3C[C@@H]4C[C@H]3CN4C3CCCC3)c2)CC1 (stereo partly shown) [Ia-115]
IC50 [3, 4]: 0.0088 µM | IC50 ([2]; Table 36): 0.063 µM

C=CC(=O)N1CC[C@H](Oc2cc(-c3noc(C4(C)CCCc5sc(N)c(C#N)c54)n3)nc(N3CCN(C)CC3)c2)C1 (stereo partly shown) [Ia-117]
IC50 [3, 4]: 0.12 µM | IC50 ([2]; Table 36): 0.468 µM

C=CC(=O)N1CCN(c2cc(OC3CCN(C)CC3)nc(-c3noc(C4(C)CCCc5sc(N)c(C#N)c54)n3)c2)CC1 (stereo not shown) [Ia-118]
IC50 [3, 4]: 0.0075 µM | IC50 ([2]; Table 36): 0.021 µM

C=CC(=O)N1CCC(Oc2cc(-c3noc(C4(C)CCC(C)c5sc(N)c(C#N)c54)n3)nc(N3CCN(C)CC3)c2)CC1 (stereo not shown) [Ia-120]
IC50 [3, 4]: 0.111 µM | IC50 ([2]; Table 36): 0.405 µM

C=CC(=O)N1CCN(c2cc(-c3noc(C4(C)CCCc5sc(N)c(C#N)c54)n3)nc(N3CCN(CC4CC4)CC3)c2)CC1 (stereo not shown) [Ia-121]
IC50 [3, 4]: 0.0099 µM | IC50 ([2]; Table 36): 0.05 µM

C=CC(=O)N1CCN(c2cc(-c3noc(C4(C)CCCc5sc(N)c(C#N)c54)n3)nc(N3CCN(C4CCCC4)CC3)c2)CC1 (stereo not shown) [Ia-122]
IC50 [3, 4]: 0.0193 µM | IC50 ([2]; Table 36): 0.071 µM

C=CC(=O)N1CCN(c2cc(-c3noc(C4(C)CCCc5sc(N)c(C#N)c54)n3)nc(N3CCN(CC)CC3)c2)CC1 (stereo not shown) [Ia-123]
IC50 [3, 4]: 0.0095 µM | IC50 ([2]; Table 36): 0.039 µM

C=CC(=O)N1CCCN(c2cc(-c3noc(C4(C)CCCc5sc(N)c(C#N)c54)n3)nc(N3CCN(C)CC3)c2)CC1 (stereo not shown) [Ia-124]
IC50 [3, 4]: 0.0766 µM | IC50 ([2]; Table 36): 0.158 µM

C=CC(=O)N1CCN(c2cc(-c3noc(C4(C)CCCc5sc(N)c(C#N)c54)n3)nc(N3CCN(CCF)CC3)c2)CC1 (stereo not shown) [Ia-125]
IC50 [3, 4]: 0.233 µM | IC50 ([2]; Table 36): 0.232 µM

C=CC(=O)N1CCN(c2cc(-c3noc([C@@]4(C)CCCc5sc(N)c(C#N)c54)n3)nc(N3CCN(CC)CC3)c2)CC1 [Ia-126]
IC50 [3, 4]: 0.0042 µM | IC50 ([2]; Table 36): 0.03 µM

C=CC(=O)N1CCC(Oc2cc(-c3noc(C4(C)CCCc5sc(N)c(C#N)c54)n3)nc(N3CCN(C)CC3)c2)CC1 (stereo not shown) [Ia-141]
IC50 [3, 4]: 0.0396 µM | IC50 ([2]; Table 36): 0.071 µM

C=CC(=O)N1CCN(c2cc(OCCCN(C)C)cc(-c3noc(C4(C)CCCc5sc(N)c(C#N)c54)n3)c2)CC1 (stereo not shown) [Ia-142]
IC50 [3, 4]: 0.0364 µM | IC50 ([2]; Table 36): 0.176 µM

C=CC(=O)N1CC2(CCN(c3cc(-c4noc(C5(C)CCCc6sc(N)c(C#N)c65)n4)nc(N4CCN(C)CC4)c3)C2)C1 (stereo not shown) [Ia-143]
IC50 [3, 4]: 1.33 µM | IC50 ([2]; Table 36): 0.34 µM

C=CC(=O)N1CCN(c2cc(OCCN3CCCC3)cc(-c3noc(C4(C)CCCc5sc(N)c(C#N)c54)n3)c2)CC1 (stereo not shown) [Ia-144]
IC50 [3, 4]: 0.0687 µM | IC50 ([2]; Table 36): 0.647 µM

C=CC(=O)N1CCCC(Oc2cc(-c3noc(C4(C)CCCc5sc(N)c(C#N)c54)n3)nc(N3CCN(C)CC3)c2)CC1 (stereo not shown) [Ia-145]
IC50 [3, 4]: 0.0935 µM | IC50 ([2]; Table 36): 0.377 µM

C=CC(=O)N1CCN(c2cc(-c3noc(C4(C)CCCc5sc(N)c(C#N)c54)n3)nc(N3CCN(CC4CC4)CC3)c2)CC1 (stereo not shown) [Ia-146]
IC50 ([3]; read-out: IC50 H358 pERK, ERK phosphorylation assay 1 (values not marked with *), NCI-H358): 0.0099 µM | IC50 ([2]; Table 36): 0.05 µM

C=CC(=O)N1CCN(c2cc(-c3noc(C4(C)CCCc5sc(N)c(C#N)c54)n3)nc(N3CCN4CCC[C@H]4C3)c2)CC1 (stereo partly shown) [Ia-148]
IC50 [3, 4]: 0.0059 µM | IC50 ([2]; Table 36): 0.024 µM

C=CC(=O)N1CCN(c2cc(-c3noc(C4(C)CCCc5sc(N)c(C#N)c54)n3)nc(N3CCN4CCCCC4C3)c2)CC1 (stereo not shown) [Ia-149]
IC50 [3, 4]: 0.0086 µM | IC50 ([2]; Table 36): 0.047 µM

C=CC(=O)N1CCN(c2cc(-c3noc(C4(C)CCCc5sc(N)c(C#N)c54)n3)nc(N3CCN(C(C)C)C(C)C3)c2)CC1 (stereo not shown) [Ia-150]
IC50 [3, 4]: 0.0095 µM | IC50 ([2]; Table 36): 0.071 µM

C=CC(=O)N(C)c1cccc(-c2cc(-c3noc(C4(C)CCCc5sc(N)c(C#N)c54)n3)nc(N3CCN(C)CC3)c2)c1 (stereo not shown) [Ia-151]
IC50 [3, 4]: 0.182 µM | IC50 ([2]; Table 36): 1.19 µM

C=CC(=O)N1CCN(c2cc(-c3noc(C4(C)CCCc5sc(N)c(C#N)c54)n3)nc(N3CCN(CC)C(C)C3)c2)CC1 (stereo not shown) [Ia-152]
IC50 [3, 4]: 0.0059 µM | IC50 ([2]; Table 36): 0.043 µM

C=CC(=O)N1CCN(c2cc(-c3noc(C4(C)CCCc5sc(N)c(C#N)c54)n3)nc(N3CCN4CCC[C@@H]4C3)c2)CC1 (stereo partly shown) [Ia-153]
IC50 [3, 4]: 0.0116 µM | IC50 ([2]; Table 36): 0.031 µM

C=CC(=O)N1CCN(c2cc(-c3noc(C4(C)CCCc5sc(N)c(C#N)c54)n3)nc(N3CCNCC3)c2)CC1 (stereo not shown) [Ia-170]
IC50 [3, 4]: 0.269 µM | IC50 ([2]; Table 40): 0.087 µM
